Measurements published in patent US4086361A, “Aminoethyl oximes having anti-depressive activity” (U.S. Philips Corporation, priority 1975, dated 1978).
Structures can show the parent of a compound that is named as a salt.

Key:
Type in all cases: in vivo, male albino mice
monoamino oxidase (MAO) = monoamino oxidase (MAO) inhibiting effect, tryptamine hydrochloride mortality test; details: oral, mice; 1 hour before 250 mg/kg s.c. tryptamine hydrochloride; mortality after 18 hours
Method: The monoamino oxidase (MAO) inhibiting effect was determined in experiments in which a quantity of the compound to be tested was administered orally to five male albino mice. One hour later the animals were injected subcutaneously with tryptamine hydrochloride in a quantity of 250 mg/kg. […] Eighteen hours after the administration of tryptamine hydrochloride it was determined how many treated animals had died. The ED50 was determined from the results. By means of the method by Metysova, Arzneimittelforschung 13,- 1039 (1963) it was determined whether the oral administration of 200 mg of a compound to be tested to rats causes stomach ulceration.

[1] = test system: serotonin (5-hydroxytryptophan); test: serotonin potentiation, 5-hydroxytryptophan test; details: Mus musculus; oral, mice; 1 hour before 150 mg/kg i.p. dl-5-hydroxytryptophan
Method: The serotonin potentiation was determined in the 5-hydroxytryptophan test. For this purpose, the compounds to be tested were administered orally in a series of dosages to isolated male albino mice (5 mice per dosage) 1 hour prior to intraperitoneal administration of 150 mg/kg of dl-5-hydroxytryptophan. Thirty minutes after this threshold dosage the mice were observed individually and the following parameters were scored: stereotypical shaking of the head, spreading of the hindlegs, tremor, tendency to flee, lordosis, clonic stamping with the frontlegs. The ED50 value was calculated from the results.

[2] = test system: noradrenaline (tetrabenazine ptosis); test: noradrenaline potentiation, tetrabenazine test; details: Mus musculus, oral, mice, 45 min before 80 mg/kg s.c. tetrabenazine, read-out: noradrenalin potentiation ED50
Method: The noradrenaline potentiation was determined in the tetrabenazine test. In this test a quantity of the compound to be tested was administered orally to five male albino mice. After 45 minutes the animals were injected subcutaneously with 80 mg/kg of tetrabenazine. After another 45 minutes the degree of ptosis was determined and compared with the ptosis of animals which had received tetrabenazine alone. The ED50 was determined from the results.

With `CCCCCC(=NOCCN)c1ccc(Br)cc1` [Br CH3, reference compound] the “MAO inhibition ED50” value (monoamino oxidase (MAO)) was over 215 mg/kg, the ED50 [1] was 10 mg/kg and the ED50 [2] was 3.1 mg/kg.

`Cl.N#CCCCCC(=NOCCN)c1ccc(Br)cc1` [Br CN, 4'-bromo-5-cyanovalerophenone O-(2-aminoethyl) oxime hydrochloride] was tested, and the “MAO inhibition ED50” value (monoamino oxidase (MAO)) was over 215 mg/kg, the ED50 [1] was 20 mg/kg and the ED50 [2] was 11.2 mg/kg.

For `COCCOCCCCC(=NOCCN)c1ccc(Br)cc1` [Br OC2 H4 OCH3, 4'-bromo-5-(2-methoxyethoxy) valerophenone O-(2-aminoethyl) oxime fumarate (1 : 1)], the “MAO inhibition ED50” value (monoamino oxidase (MAO)) was over 215 mg/kg, the ED50 [1] was 35 mg/kg and the ED50 [2] was 6.6 mg/kg.

`COCCCCC(=NOCCN)c1ccc(Br)cc1` [Br OCH3, 4'-bromo-5-methoxyvalerophenone O-(2-aminoethyl) oxime fumarate (1 : 1)] was tested, and the “MAO inhibition ED50” value (monoamino oxidase (MAO)) was over 215 mg/kg, the ED50 [1] was 22 mg/kg and the ED50 [2] was 6.6 mg/kg.

`COCCCCCC(=NOCCN)c1ccc(Cl)cc1.Cl` [Cl C2 OCH3, 4'-chloro-6-methoxycaprophenone O-(2-aminoethyl) oxime hydrochloride] was tested, and the “MAO inhibition ED50” value (monoamino oxidase (MAO)) was over 215 mg/kg, the ED50 [1] was 36 mg/kg and the ED50 [2] was 5.3 mg/kg.

`Cl.N#CCCCCCC(=NOCCN)c1ccc(Cl)cc1` [Cl CH2 CN, 4'-chloro-6-cyanocaprophenone O-(2-aminoethyl) oxime hydrochloride] was tested, and the “MAO inhibition ED50” value (monoamino oxidase (MAO)) was over 215 mg/kg, the ED50 [1] was 38 mg/kg and the ED50 [2] was 11 mg/kg.

In the case of `CCOCCCCCC(=NOCCN)c1ccc(Cl)cc1.Cl` [Cl CH2 OC2 H5, 4'-chloro-6-ethoxycaprophenone O-(2-aminoethyl) oxime hydrochloride], the “MAO inhibition ED50” value (monoamino oxidase (MAO)) was over 215 mg/kg, the ED50 [1] was 54 mg/kg and the ED50 [2] was 7.4 mg/kg.

In the case of `CCCCCC(=NOCCN)c1ccc(Cl)cc1` [Cl CH3, reference compound], the “MAO inhibition ED50” value (monoamino oxidase (MAO)) was over 215 mg/kg, the ED50 [1] was 14 mg/kg and the ED50 [2] was 1.9 mg/kg.

With `Cl.N#CCCCCC(=NOCCN)c1ccc(Cl)cc1` [Cl CN, 4'-chloro-5-cyanovalerophenone O-(2-aminoethyl) oxime hydrochloride] the “MAO inhibition ED50” value (monoamino oxidase (MAO)) was over 215 mg/kg, the ED50 [1] was 20 mg/kg and the ED50 [2] was 6.8 mg/kg.

With `CCCCC(=NOCCN)c1ccc(Cl)cc1` [Cl H, reference compound] the “MAO inhibition ED50” value (monoamino oxidase (MAO)) was over 215 mg/kg, the ED50 [1] was 12 mg/kg and the ED50 [2] was 5.6 mg/kg.

With `COCCOCCCCC(=NOCCN)c1ccc(Cl)cc1` [Cl OC2 H4 OCH3, 4'-chloro-5-(2-methoxyethoxy) valerophenone O-(2-aminoethyl) oxime fumarate (1 : 1)] the “MAO inhibition ED50” value (monoamino oxidase (MAO)) was over 215 mg/kg, the ED50 [1] was 41 mg/kg and the ED50 [2] was 4 mg/kg.

`CCOCCCCC(=NOCCN)c1ccc(Cl)cc1` [Cl OC2 H5, 4'-chloro-5-ethoxyvalerophenone O-(2-aminoethyl) oxime fumarate (1 : 1)] was tested, and the “MAO inhibition ED50” value (monoamino oxidase (MAO)) was over 215 mg/kg, the ED50 [1] was 36 mg/kg and the ED50 [2] was 4.3 mg/kg.
